pIC50: −log10 of the molar value. Active and inactive are the calls of the source.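 How the source made its calls: active means toxic to mouse fibroblast host cells, with IC50 below 50 µM; inactive means the rest.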

For orientation: IC50 means the midpoint of a concentration-inhibition curve. The pIC50 is the negative decadic logarithm of the IC50, by convention in mol/L.

The subject of this experiment is NIH-3T3 viability, ATP luminescence. Put plainly: murine fibroblast viability via ATP level – cell-based, murine fibroblasts, cytotoxicity control for Trypanosoma cruzi inhibitor project (AID 1159561). As to conditions: 4 days.
As to `CC(C)(C)C(Cn1ccnc1)NC(=O)c1ccc2nc(C3CC3)oc2c1` (stereo unspecified), the IC50 is > 50 µM (inactive).
Still for that read-out and setting: in the case of `COc1cccc(-c2cc(C(F)(F)F)nc(-n3ccc([N+](=O)[O-])n3)n2)c1` it was > 50 µM (inactive); in that of `O=C(Cn1cnc2cc([N+](=O)[O-])ccc2c1=O)NCCc1ccc(Cl)cc1Cl`, > 50 µM (inactive).
Regarding `COc1ccc(-c2nc3ncccc3o2)cc1NC(=O)c1cccs1`, the IC50 is > 50 µM (inactive).
The same measure, in the same setting: then `Cc1cccc(NS(=O)(=O)c2ccc3c(c2)C(=O)c2cc(S(=O)(=O)Nc4cccc(C)c4C)ccc2-3)c1C`, with > 50 µM (inactive); and `Cc1nnnn1-c1cccc(C(=O)N2CCC[C@@]3(C)c4ncncc4CCC23)c1` (stereo partly specified), with > 50 µM (inactive).
Consider `Cc1ccc2nc(N(Cc3cccnc3)C(=O)CCc3ccccc3)sc2c1`, for which the negative-log IC50 (pIC50) is 4.80.
For the compound `c1ccc2c(CCOc3nccnc3-c3ccncc3)c[nH]c2c1`, the pIC50 was 4.70.
For the compound `CCCC(=O)N(Cc1ccccn1)c1nc2ccccc2s1`, the IC50 is > 50 µM (inactive).
On to `COc1ccc(S(=O)(=O)NCc2ccc(-c3ccc(CN(C)CCO)cc3)cc2)cc1`, for which the pIC50 was 4.80.
Consider `CCOc1cnn(C)c(=O)c1Nc1ccc(C(=O)NCc2ccc(F)cc2)cc1`, for which the IC50 was > 50 µM (inactive).
Regarding `O=C(NCC1CCCCC1)c1cc(=O)c2ccccc2o1`, the pIC50 is 4.49.
`O=c1[nH]ccc2ccc(-c3ccncc3)cc12`: the IC50 was > 50 µM (inactive).
The same measure, in the same setting: then `COc1ccc2c(Cl)c(C(=O)N3CCC3)sc2c1Cl`, with > 50 µM (inactive).
For `COc1ccc2ncc(F)c(NC(=O)C3(O)CCC(NCc4ccc5c(c4)OCCO5)CC3)c2n1` (stereo unspecified), the pIC50 was 5.10.
In the case of `COc1ccc(CN(C)Cc2ccncc2)cc1-c1ccc(S(=O)(=O)NC2CCC2)s1`, the pIC50 is 4.60.
As to `CC(C)Oc1cccc(N2CCC(C(=O)N3CCCN(C(C)C)CC3)CC2)c1`, the pIC50 was 4.49.
Same read-out and setting: in the case of `COc1ccc2nc(N(Cc3cccnc3)C(=O)C3CCC3)sc2c1` it was 4.30.
Consider `COc1cc(C(C)C)c(S(C)(=O)=O)cc1C(=O)N1CCN(c2ccccc2Cl)CC1`, for which the IC50 was > 50 µM (inactive).
In the case of `N#Cc1cccc(CN2CCC(c3nc(-c4ccc(C(F)(F)F)nc4)no3)CC2)c1`, the IC50 is > 50 µM (inactive).
As for `Cc1ccc(S(=O)(=O)Nc2ccc(CN3CCN(C(=O)c4cccc(C#N)c4)CC3)cc2)cc1`, the IC50 was > 50 µM (inactive).
The same measure, in the same setting: then `CC(Cn1ccnc1)NC(=O)COc1ccc(Cl)c(Cl)c1` (stereo unspecified), with > 50 µM (inactive).
For the compound `FC(F)(F)c1cc(C2CCCN(Cc3c[nH]c4ccccc34)C2)nc2ncnn12` (stereo unspecified), the pIC50 is 4.70.
With `COc1ccccc1-c1c(C)[nH]c2nc(N)nc(C)c12`, the IC50 was > 50 µM (inactive).
Turning to `O=S(=O)(c1cccc(CSc2nnc(-c3ccc4c(c3)OCO4)o2)c1)N1CCOCC1`, the negative logarithm of the IC50 (pIC50) is 4.80.
On to `COc1ccc(CN2CCCCC2c2nc(-c3cccnc3)no2)cc1` (stereo unspecified), for which the IC50 was > 50 µM (inactive).
With `N#Cc1cccc(CN2CCC(N(Cc3cccnc3)C(=O)c3cc(F)c(F)cc3F)CC2)c1`, the negative logarithm of the IC50 (pIC50) is 4.70.
Turning to `Cc1cccc(NS(=O)(=O)c2cnc3sc(C)cn3c2=O)c1`, the IC50 is > 50 µM (inactive).
In the case of `O=C(NCc1nnc2n1CCCCC2)c1ccc(-c2ccc(F)cc2)o1`, the IC50 is > 50 µM (inactive).
On to `Cc1nc(N2CCC(C(=O)N3CCC(O)(c4cccnc4)CC3)CC2)nc2ccc(C(C)C)cc12`, for which the pIC50 is 4.60.
On the same count and under the same terms, in the case of `Cc1ccccc1OCC(=O)N1CCCN(c2cccnn2)CC1` it was 4.30; in that of `OC1CCC(Nc2nccc(-c3sc(C4CCOCC4)nc3-c3ccc(F)c(F)c3)n2)CC1` (stereo unspecified), 4.40; in that of `COc1ccc(C)cc1-c1csc(NC(=O)C(C)n2ccnc2)n1` (stereo unspecified), 4.30.
Regarding `Cc1c(C(C)NC(=O)Nc2cccc(Cl)c2)sc2ncnn12` (stereo unspecified), the IC50 was > 50 µM (inactive).
Same read-out and setting: in the case of `CC(C(=O)Nc1ccc(Br)cc1)N1CCN(c2ccc([N+](=O)[O-])cc2)CC1` (stereo unspecified) it was > 50 µM (inactive).
Consider `Cc1ccc2sc(NC(=O)Cn3cnc([N+](=O)[O-])n3)nc2c1`, for which the pIC50 was 4.30.
`Cc1cc2cncn2c(C2CCCCN2C(=O)c2cccs2)n1` (stereo unspecified): the IC50 is > 50 µM (inactive).
Take `O=C(N1CCc2ccccc2CC1)C1(C(=O)N2CCC(n3c(=O)[nH]c4ncccc43)CC2)CC1`: the pIC50 was 4.40.
For `Cc1ccc(NC(=O)c2ccc(Cl)c(NC(=O)c3ccc([N+](=O)[O-])cc3)c2)cc1`, the pIC50 is 4.70.
Regarding `O=C(COc1ncnc2cc([N+](=O)[O-])ccc12)NC(=O)NC1CCCCC1`, the IC50 is > 50 µM (inactive).
With `COc1ccc(S(=O)(=O)Nc2ccccc2OC)cc1NC(=O)CCCc1c[nH]c2ccccc12`, the IC50 was > 50 µM (inactive).
For `COc1ccc(C(C)N(C)c2ncc3c(N)nc(N)nc3n2)cc1F` (stereo unspecified), the pIC50 is 4.40.
In the case of `CC1(Oc2cncc(Cl)c2)CCN(Cc2cc3ccccc3[nH]2)C1` (stereo unspecified), the negative-log IC50 (pIC50) is 5.00.
For `COc1ccc(NS(=O)(=O)c2cc(-c3cc(C)[nH]n3)ccc2C)cc1OC`, the IC50 was > 50 µM (inactive).
For the compound `CN(Cc1nnnn1C1CCN(Cc2ccc(-n3ccnc3)cc2)CC1)c1ccc(F)cc1F`, the pIC50 was 4.60.
On the same count and under the same terms, in the case of `CN(Cc1ccccc1)Cc1nnnn1C1CCN(Cc2ccc(-n3ccnc3)cc2)CC1` it was 5.40.
Still for that read-out and setting: in the case of `Clc1ccc(C(CC2CCCCO2)Cn2cncn2)c(Cl)c1` (stereo unspecified) it was 4.40; in that of `O=C(Nc1ccc(Br)c(Cl)c1)Nc1ccc2c(c1)OCO2`, 4.80; in that of `O=c1oc2ccccc2n1C1CCN(Cc2ccccc2-c2cccnc2)CC1`, 4.80.
In the case of `CN(C)Cc1ccc(-c2ccc(S(=O)(=O)NCC3CCCO3)c(F)c2)cc1` (stereo unspecified), the pIC50 is 4.80.
For the compound `O=C(NCC1CCCCC1)c1cnns1`, the IC50 was > 50 µM (inactive).
For the compound `CN1CCCN(C(=O)c2ccc(N3CCCC3)cc2Cl)CC1`, the pIC50 is 4.60.
Turning to `O=C(NCCc1ccccn1)C(c1cn[nH]c1)N1CCN(c2ccc(Cl)c(Cl)c2)CC1` (stereo unspecified), the negative logarithm of the IC50 (pIC50) is 4.49.
For `O=C(NC1C(=O)N(c2ccccc2)C1c1cccnc1)c1ccc(Cl)s1` (stereo unspecified), the IC50 is > 50 µM (inactive).
In the case of `O=C(c1cc2cc(Cl)ccc2[nH]1)N1CCCCC1c1cccnc1` (stereo unspecified), the pIC50 is 4.40.
The same measure, in the same setting: in the case of `Fc1ccccc1N1C[C@H]2CCN(c3cccnc3)C[C@H]2C1` it was 4.89.
For the compound `Cc1nc2nc(C)c(Cc3ccc(C(C)C)cc3)c(=O)n2[nH]1`, the IC50 was > 50 µM (inactive).
Turning to `Cc1c(CNC(=O)c2ccc(Cn3cc(Cl)c([N+](=O)[O-])n3)cc2)cnn1C`, the IC50 was > 50 µM (inactive).
Still for that read-out and setting: in the case of `O=c1ccn(-c2ccc([N+](=O)[O-])cc2Cl)c2ccc(F)cc12` it was > 50 µM (inactive); in that of `O=C1CSC(c2cccnc2)N1c1ccc(Cl)cc1Cl` (stereo unspecified), > 50 µM (inactive).
On to `Clc1ccc(CN2CCN(C3=NCCN3)CC2)cc1Cl`, for which the pIC50 is 4.40.

The record behind these values is PubChem BioAssay AID1159561 (GlaxoSmithKline (GSK), 2015).
